Reference: US20100273787A1, “KYNURENINE-AMINOTRANSFERASE INHIBITORS” (priority 2007, published 2010)

Legend:
[1] = system: extracellular kynurenic acid (KYNA) and dopamine (DA) levels in prefrontal cortex; experiment: In vivo reverse dialysis / microdialysis in rat prefrontal cortex; settings: 1 mM into prefrontal cortex for 2 hours by reverse dialysis, FIG. 2
Method: Microdialysis was performed in the prefrontal cortex of unanesthetized male rats (200-220 g) according to established procedures (see Eur. J. Neurosci., 4:1264-70, 1992 for methodology).
Compound (A) was also tested in the rat brain in vivo. Briefly, a concentration of 1 mM Compound (A) was introduced into the prefrontal cortex for 2 hours by reverse dialysis. A detailed description of this method can be found in J Neurosci Res 85(4):845-54, 2007 (Ceresoli-Borroni G, Guidetti P, Amori L, Pellicciari R, Schwarcz R).

Kynureninase = target: T1, Kynureninase (Rattus norvegicus, UniProt P70712); experiment: Kynureninase activity in rat liver homogenate; format: biochemical
T1 construct: determined in rat liver homogenate; from tissue; host or cells: rat liver homogenate
T1 sequence (P70712 1-464): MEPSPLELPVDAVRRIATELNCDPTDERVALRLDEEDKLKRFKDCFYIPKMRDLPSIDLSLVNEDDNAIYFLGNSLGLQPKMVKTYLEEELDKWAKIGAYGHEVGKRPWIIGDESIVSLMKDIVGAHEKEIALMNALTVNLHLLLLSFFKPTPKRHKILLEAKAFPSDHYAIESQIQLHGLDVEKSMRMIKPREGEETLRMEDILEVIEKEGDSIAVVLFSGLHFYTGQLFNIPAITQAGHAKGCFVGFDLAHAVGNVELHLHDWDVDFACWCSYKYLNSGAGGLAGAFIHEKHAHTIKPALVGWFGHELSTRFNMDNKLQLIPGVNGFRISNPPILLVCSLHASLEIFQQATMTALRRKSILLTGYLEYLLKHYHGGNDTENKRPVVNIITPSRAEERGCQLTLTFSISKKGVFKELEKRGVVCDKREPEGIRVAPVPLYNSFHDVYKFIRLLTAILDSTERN
Method: (§1) Kynurenine 3-hydroxylase and kynureninase activities were determined in rat liver homogenate according to established procedures (see Anal. Biochem., 205:257-62, 1992 and Neuroscience., 61:237-43, 1994 for methodology).

[2] = target: T2, KAT II (partially purified rat liver enzyme) (Rattus norvegicus, UniProt Q64602); experiment: KAT II activity, partially purified rat liver enzyme ([3H]-kynurenine to [3H]-KYNA); format: biochemical
T2 construct: partially purified rat liver enzyme; from tissue; host or cells: rat liver
T2 sequence (Q64602 30-425): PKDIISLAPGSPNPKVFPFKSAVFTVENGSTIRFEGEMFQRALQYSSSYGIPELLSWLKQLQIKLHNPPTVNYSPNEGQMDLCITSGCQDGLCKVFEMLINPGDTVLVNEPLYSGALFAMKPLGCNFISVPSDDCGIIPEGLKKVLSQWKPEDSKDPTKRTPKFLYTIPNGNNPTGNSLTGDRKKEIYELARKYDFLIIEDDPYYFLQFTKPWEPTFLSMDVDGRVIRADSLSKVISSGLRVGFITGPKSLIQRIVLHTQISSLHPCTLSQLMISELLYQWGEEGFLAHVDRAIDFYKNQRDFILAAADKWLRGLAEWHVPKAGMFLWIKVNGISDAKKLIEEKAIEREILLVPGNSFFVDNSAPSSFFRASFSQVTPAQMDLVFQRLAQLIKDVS
Method: (§2) For the measurement of KAT II activity, 100 μl of partially purified rat liver enzyme were incubated (2 hrs, 37° C.) with 100 μl of 150 mM Tris-acetate (pH 7.0), 2 μM (2.5 nCi) [^3H]-kynurenine, 1 mM pyruvate and 80 μM pyridoxal-5′-phosphate. Blanks were obtained using denatured protein preparations. The reaction was terminated by the addition of […] of 30% (w/v) trichloroacetic acid. 1 ml of 0.1 M HCl was added, and the denatured protein was removed by centrifugation. 1 ml of the supernatant was applied to a Dowex 50 W H^+cation exchange column, which was then washed with 1 ml of 0.1 M HCl, followed by 1 ml of ultrapure water. [^3H]-KYNA was subsequently eluted with 2×1 ml of ultrapure water, and radioactivity was quantified by liquid scintillation spectrometry. Human recombinant KAT II protein was also used to measure KAT II activity as described above.
(§3) Test compounds were added in 20 μl aliquots at the beginning of the incubation period to examine interference with enzyme activity.

[3] = system: KYNA production in rat brain tissue slices; experiment: De novo production of KYNA in rat brain tissue slices; format: cell-based; settings: 6 hr at 37 degrees, FIG. 1
Method: The ability of Compound (A) to inhibit the de novo production of KYNA in rat brain tissue slices was also tested. A 2 μM concentration of Compound (A) was assayed as described by Gramsbergen J B, Hodgkins P S, Rassoulpour A, Turski W A, Guidetti P, Schwarcz R., (J. Neurochem., 69:290, 1997). Briefly, an aliquot of the original tissue homogenate was further diluted (1:5, v/v) in a buffer containing 5 mM Tris acetate (pH 8.0), 50 μM pyridoxal-5′-phosphate and 10 mM 2-mercapto-ethanol, and dialyzed overnight at 4 degrees. The reaction mixture containing 150 mM Tris-acetate buffer (pH 7.0), 2 μM L-kynurenine, 1 mM pyruvate, 80 μM pyridoxal-5′-phosphate and 80 μL dialysate in a total volume of […] was incubated w/wo Compound (A) for 6 hr at 37 degrees. The reaction was terminated by adding […] of 50% (w/v) trichloracetic acid and KYNA levels were measured using reverse-phase HPLC with fluorescence detection (excitation, 344 nm; emission, 398 nm).

Kynurenine 3-hydroxylase = target: T3, Kynurenine 3-hydroxylase (Rattus norvegicus, UniProt O88867); experiment: Kynurenine 3-hydroxylase activity in rat liver homogenate; format: biochemical
T3 construct: determined in rat liver homogenate; from tissue; host or cells: rat liver homogenate
T3 sequence (O88867 whole entry): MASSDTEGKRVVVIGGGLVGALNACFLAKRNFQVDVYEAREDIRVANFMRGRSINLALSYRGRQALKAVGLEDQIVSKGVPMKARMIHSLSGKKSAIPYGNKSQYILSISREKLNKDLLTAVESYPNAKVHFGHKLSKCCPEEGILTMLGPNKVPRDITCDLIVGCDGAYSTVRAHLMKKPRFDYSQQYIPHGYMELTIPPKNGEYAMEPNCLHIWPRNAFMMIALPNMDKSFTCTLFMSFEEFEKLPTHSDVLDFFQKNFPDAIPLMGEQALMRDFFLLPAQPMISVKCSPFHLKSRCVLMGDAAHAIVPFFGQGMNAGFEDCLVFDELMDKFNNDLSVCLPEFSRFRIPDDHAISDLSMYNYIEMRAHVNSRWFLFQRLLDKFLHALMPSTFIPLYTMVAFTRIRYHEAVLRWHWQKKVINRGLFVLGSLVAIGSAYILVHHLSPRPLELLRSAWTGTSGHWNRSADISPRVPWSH
Method: as §1

[4] = target: Human recombinant KAT II protein (Homo sapiens, UniProt Q8N5Z0); experiment: KAT II activity, human recombinant protein ([3H]-kynurenine to [3H]-KYNA); format: biochemical
Chain of Human recombinant KAT II protein (Q8N5Z0 30-425): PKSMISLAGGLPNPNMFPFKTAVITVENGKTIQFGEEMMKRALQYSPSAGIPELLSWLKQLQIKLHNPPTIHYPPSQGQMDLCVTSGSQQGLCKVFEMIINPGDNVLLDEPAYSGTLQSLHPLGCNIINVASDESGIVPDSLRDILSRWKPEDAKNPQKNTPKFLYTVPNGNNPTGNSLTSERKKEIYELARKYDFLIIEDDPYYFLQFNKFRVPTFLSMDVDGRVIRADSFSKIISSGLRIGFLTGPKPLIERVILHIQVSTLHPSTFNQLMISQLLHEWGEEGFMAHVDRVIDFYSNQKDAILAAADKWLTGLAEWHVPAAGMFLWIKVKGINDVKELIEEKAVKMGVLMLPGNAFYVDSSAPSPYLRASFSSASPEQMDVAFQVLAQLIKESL
Method: as §2, §3

C[C@H]1COc2c(N3CCN(N)CC3)c(F)cc3c(=O)c(C(=O)O)cn1c23.O=C(O)C(F)(F)F [Compound (A), (S)-(−)-9-(4-Aminopiperazin-1-yl)-8-fluoro-3-methyl-6-oxo-2,3-dihydro-6H-1-oxa-3a-aza-phenalene-5-carboxylic acid trifluoroacetate]
increase of extracellular dopamine (DA) levels [1]: > 2.5 fold | reduction of extracellular kynurenic acid (KYNA) levels [1]: ~40% | IC50 (Kynureninase): > 2 mM | IC50 [2]: 2000 nM | inhibition of de novo production of KYNA from L-kynurenine [3]: dose-dependently inhibit | IC50 (Kynurenine 3-hydroxylase): > 1 mM | IC50 ([4]; human recombinant protein): 200 nM | times more active against human KAT II than against rat KAT II ([4]; human vs rat KAT II): 10 times | times more active than UPF 874 as a KAT II inhibitor in humans ([4]; relative to UPF 874): 3000 times
